Values of other authors as cited in patent publication US11857556B2, “Topical compositions of dutasteride” (SHILPA MEDICARE LIMITED, priority 2021, dated 2024).

For C[C@]12C=CC(=O)N[C@@H]1CC[C@@H]1[C@@H]2CC[C@]2(C)[C@@H](C(=O)Nc3cc(C(F)(F)F)ccc3C(F)(F)F)CC[C@@H]12 [Dutasteride, (5α,17β)-N-{2,5-bis(trifluoromethyl)phenyl}-3-oxo-4-azaandrost-1-ene-17-carboxamide], the “Solubility in ethanol, methanol and polyethylene glycol 400” value (ethanol, methanol and polyethylene glycol 400) is listed as “soluble” and the Solubility in water (water) is listed as “insoluble”.
